Here are results for 17 compounds from patent publication US8530493B2, “Indolopyridines as Eg5 kinesin modulators” (4SC AG, priority 2006, dated 2013).

For this experiment, the system named is RKO p21 uninduced (proliferating) colon adenocarcinoma cells. In words: Alamar Blue cell viability assay, RKO p21 uninduced (proliferating). The class given is cell-based. The settings on record: Homo sapiens, Table B3, anti-proliferative/cytotoxic activity, 72 hours, read-out: −log EC50 RKO p21 uninduced (proliferating) (converted). An outline of the steps: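 RKO p21 or p27 subclones grown without Ponasterone A, i.e. proliferating, exposed 24 h after seeding to semi-log compound dilutions in DMEM/10% FCS (1% DMSO controls) for 72 h at 37° C. Alamar Blue fluorescence (544/590 nm) read relative to untreated cells; EC50 from dose-response curves, given as −log EC50 (mol/l).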
For orientation: The colour change of resazurin is a common sign of viable cells or microbes.

As usually defined, the EC50 is the midpoint of the concentration-response curve. As to `C#CCNCCCN1C(=O)N2[C@H](c3cccc(O)c3)c3[nH]c4ccc(OCC)cc4c3C[C@@]2(C)C1=O` (racemic) [Example 225, (3aSR,10RS)-6-Ethoxy-10-(3-hydroxy-phenyl)-3a-methyl-2-(3-prop-2-ynylamino-propyl)-3a,4,9,10-tetrahydro-2,9,10a-triaza-cyclopenta[b]fluorene-1,3-dione], the EC50 was 39.8 to 251 nM.

Turning to `CCN(CCCN1C(=O)N2[C@H](c3cccc(O)c3)c3[nH]c4ccc(Br)cc4c3C[C@@]2(C)C1=O)CCOC` (racemic) [Example 217, (3aSR,10RS)-6-Bromo-2-{3-[ethyl-(2-methoxy-ethyl)-amino]-propyl}-10-(3-hydroxy-phenyl)-3a-methyl-3a,4,9,10-tetrahydro-2,9,10a-triaza-cyclopenta[b]fluorene-1,3-dione], the EC50 is no more than 39.8 nM.

Consider `C[C@@]12Cc3c([nH]c4cc(F)c(Cl)cc34)[C@@H](c3cccc(O)c3)N1C(=O)N(CCCN1CCCCC1)C2=O` (racemic) [Example 478, (3aSR,10RS)-6-Chloro-7-fluoro-10-(3-hydroxy-phenyl)-3a-methyl-2-(3-piperidin-1-yl-propyl)-3a,4,9,10-tetrahydro-2,9,10a-triaza-cyclopenta[b]fluorene-1,3-dione], for which the 50% effective concentration (EC50) was no more than 39.8 nM.

With `C#CCNCCCN1C(=O)N2[C@H](c3cccc(O)c3)c3[nH]c4ccc(OC)cc4c3C[C@@]2(C)C1=O` [Example 539, (3aS,10R)-10-(3-Hydroxy-phenyl)-6-methoxy-3a-methyl-2-(3-prop-2-ynylamino-propyl)-3a,4,9,10-tetrahydro-2,9,10a-triaza-cyclopenta[b]fluorene-1,3-dione], the EC50 was no more than 39.8 nM.

As to `COc1ccc2[nH]c3c(c2c1)C[C@@]1(C)C(=O)N(CCCNC(C)(C)C)C(=O)N1[C@@H]3c1cccc(O)c1` (racemic) [Example 167, (3aSR,10RS)-2-(3-tert-Butylamino-propyl)-10-(3-hydroxy-phenyl)-6-methoxy-3a-methyl-3a,4,9,10-tetrahydro-2,9,10a-triaza-cyclopenta[b]fluorene-1,3-dione], the concentration giving a half-maximal response (EC50) was no more than 39.8 nM.

Regarding `CN(CCO)CCCN1C(=O)N2[C@H](c3cccc(O)c3)c3[nH]c4cc(F)c(Cl)cc4c3C[C@@]2(C)C1=O` (racemic) [Example 468, (3aSR,10RS)-6-Chloro-7-fluoro-2-{3-[(2-hydroxy-ethyl)-methyl-amino]-propyl}-10-(3-hydroxy-phenyl)-3a-methyl-3a,4,9,10-tetrahydro-2,9,10a-triaza-cyclopenta[b]fluorene-1,3-dione], the EC50 is no more than 39.8 nM.

On to `C[C@@]12Cc3c([nH]c4cc(F)c(Cl)cc34)[C@@H](c3cccc(O)c3)N1C(=O)N(CCCN1CCCC1)C2=O` (racemic) [Example 476, (3aSR,10RS)-6-Chloro-7-fluoro-10-(3-hydroxy-phenyl)-3a-methyl-2-(3-pyrrolidin-1-yl-propyl)-3a,4,9,10-tetrahydro-2,9,10a-triaza-cyclopenta[b]fluorene-1,3-dione], for which the EC50 is no more than 39.8 nM.

With `COc1ccc2[nH]c3c(c2c1)C[C@@]1(C)C(=O)N(CCCN(C)C)C(=O)N1[C@@H]3c1cccc(O)c1` [Example 540, (3aS,10R)-2-(3-Dimethylamino-propyl)-10-(3-hydroxy-phenyl)-6-methoxy-3a-methyl-3a,4,9,10-tetrahydro-2,9,10a-triaza-cyclopenta[b]fluorene-1,3-dione], the 50% effective concentration (EC50) was no more than 39.8 nM.

Turning to `CCN(CCCN1C(=O)N2[C@H](c3cccc(O)c3)c3[nH]c4ccc(OC(F)F)cc4c3C[C@@]2(C)C1=O)CCOC` (racemic) [Example 178, (3aSR,10RS)-6-(1,1-Difluoro-methoxy)-2-{3-[ethyl-(2-methoxy-ethyl)-amino]-propyl}-10-(3-hydroxy-phenyl)-3a-methyl-3a,4,9,10-tetrahydro-2,9,10a-triaza-cyclopenta[b]fluorene-1,3-dione], the EC50 was no more than 39.8 nM.

With `CC(C)CNCCN1C(=O)N2[C@H](c3cccc(O)c3)c3[nH]c4ccc(OC(F)F)cc4c3C[C@@]2(C)C1=O` (racemic) [Example 269, (3aSR,10RS)-6-(1,1-Difluoro-methoxy)-10-(3-hydroxy-phenyl)-2-(2-isobutylamino-ethyl)-3a-methyl-3a,4,9,10-tetrahydro-2,9,10a-triaza-cyclopenta[b]fluorene-1,3-dione], the concentration giving a half-maximal response (EC50) was no more than 39.8 nM.

Turning to `C[C@@]12Cc3c([nH]c4ccc(OC(F)F)cc34)[C@@H](c3cccc(O)c3)N1C(=O)N(CCN1CCOCC1)C2=O` (racemic) [Example 292, (3aSR,10RS)-6-(1,1-Difluoro-methoxy)-10-(3-hydroxy-phenyl)-3a-methyl-2-(2-morpholin-4-yl-ethyl)-3a,4,9,10-tetrahydro-2,9,10a-triaza-cyclopenta[b]fluorene-1,3-dione], the EC50 was 39.8 to 251 nM.

As for `CCN(CCOC)CCN1C(=O)N2[C@H](c3cccc(O)c3)c3[nH]c4cc(F)c(Cl)cc4c3C[C@@]2(C)C1=O` (racemic) [Example 350, (3aSR,10RS)-6-Chloro-2-{2-[ethyl-(2-methoxy-ethyl)-amino]-ethyl}-7-fluoro-10-(3-hydroxy-phenyl)-3a-methyl-3a,4,9,10-tetrahydro-2,9,10a-triaza-cyclopenta[b]fluorene-1,3-dione], the concentration giving a half-maximal response (EC50) is 39.8 to 251 nM.

In the case of `C=CCNCCN1C(=O)N2[C@H](c3cccc(O)c3)c3[nH]c4ccc(OCC)cc4c3C[C@@]2(C)C1=O` (racemic) [Example 157, (3aSR,10RS)-2-(2-Allylamino-ethyl)-6-ethoxy-10-(3-hydroxy-phenyl)-3a-methyl-3a,4,9,10-tetrahydro-2,9,10a-triaza-cyclopenta[b]fluorene-1,3-dione], the EC50 is no more than 39.8 nM.

In the case of `CN1CCN(CCCN2C(=O)N3[C@H](c4cccc(O)c4)c4[nH]c5ccc(Cl)cc5c4C[C@@]3(C)C2=O)CC1` (racemic) [Example 175, (3aSR,10RS)-6-Chloro-10-(3-hydroxy-phenyl)-3a-methyl-2-[3-(4-methyl-piperazin-1-yl)-propyl]-3a,4,9,10-tetrahydro-2,9,10a-triaza-cyclopenta[b]fluorene-1,3-dione], the half-maximal effective concentration (EC50) is no more than 39.8 nM.

For `CCN(CCCN1C(=O)N2[C@H](c3cccc(O)c3)c3[nH]c4ccc(OC)cc4c3C[C@@]2(C)C1=O)CCOC` [Example 544, (3aS,10R)-2-{3-[Ethyl-(2-methoxy-ethyl)-amino]-propyl}-10-(3-hydroxy-phenyl)-6-methoxy-3a-methyl-3a,4,9,10-tetrahydro-2,9,10a-triaza-cyclopenta[b]fluorene-1,3-dione], the EC50 is no more than 39.8 nM.

Regarding `C[C@@]12Cc3c([nH]c4ccc(Cl)cc34)[C@@H](c3cccc(O)c3)N1C(=O)N(CCCN1CCCCC1)C2=O` (racemic) [Example 181, (3aSR,10RS)-6-Chloro-10-(3-hydroxy-phenyl)-3a-methyl-2-(3-piperidin-1-yl-propyl)-3a,4,9,10-tetrahydro-2,9,10a-triaza-cyclopenta[b]fluorene-1,3-dione], the 50% effective concentration (EC50) is no more than 39.8 nM.

Regarding `CN(CCO)CCN1C(=O)N2[C@H](c3cccc(O)c3)c3[nH]c4ccc(OC(F)F)cc4c3C[C@@]2(C)C1=O` (racemic) [Example 288, (3aSR,10RS)-6-(1,1-Difluoro-methoxy)-2-{2-[(2-hydroxy-ethyl)-methyl-amino]-ethyl}-10-(3-hydroxy-phenyl)-3a-methyl-3a,4,9,10-tetrahydro-2,9,10a-triaza-cyclopenta[b]fluorene-1,3-dione], the half-maximal effective concentration (EC50) is 39.8 to 251 nM.
